Assay results from article PMC7136958, “Targeting the pregnane X receptor using microbial metabolite mimicry” (EMBO Molecular Medicine, 2020).
“And” between values parts separate entries of the source, which are not always exact repeats. Equal entries are not always repeated. Where two headings read alike, the source gives them in different places.

Key:
[1] = tested on: IL-8 mRNA in Caco-2 cells; experiment: IL-8 mRNA in Caco-2 monolayers exposed to cytokine cocktail; format: cell-based, human; parameters: key to IL8 mRNA: relative IL-8 mRNA level, normalized to GAPDH; settings: for IL8 mRNA: Caco-2 cells, triplicate
Description: Caco‐2 cell (ATCC, Manassas, VA) passages 25–35 were maintained and expanded in culture flasks in Dulbecco's modified Eagle's medium (DMEM) with 10% FBS and 1× antibiotic–antimycotic. The cells were kept in a humidified 37°C incubator with 5% CO2. Media were changed every 2–3 days, and cells were passaged 1–2 times a week. For all experiments, Caco‐2 cells (5 × 10^4 cells/ml) were seeded into 12‐well Transwell inserts or coverslips and cultured for 3 weeks. HIOs were generated from iPSCs as described previously (Spence et al, 2011), with some modifications. The iPSC cell line IISH1i‐BM1 (WiCell, Madison, WI) was cultured on Matrigel plates to 80% confluence in mTeSR™ 1 medium (Stem Cell Technologies, Seattle, WA) and differentiated to endoderm using Definitive Endoderm Kit (Stem Cell Technologies., Seattle, WA) for 4 days with daily media changes. Endoderm was then differentiated to hindgut for 5 days with the addition of FGF‐4 (500 ng/ml; Peprotech, Rocky Hill, NJ) and Chir99021 (3 μM; Cayman, Ann Arbor, MI) in RPMI media supplemented with 2% FBS. Floating hindgut spheroids were collected on days 3–5 of hindgut differentiation and suspended in Matrigel beads for HIO differentiation. HIOs were maintained in WENRAS media (Fujii et al, 2015), which maintains proliferation in the culture. Stock HIOs were passaged weekly by removing Matrigel with Cell Recovery Solution (Corning, NY) and mechanically breaking up organoids with pipetting. HIOs were seeded into new Matrigel beads at a 1:3 split, using WENRAS with added Rock Inhibitor Y‐27632 (10 μM) and Chir99021 (3 μM; Cayman., Ann Arbor, MI) for the first 2 days of culture.
Relative mRNA levels of IL‐8 and IL‐6 were determined using quantitative real‐time PCR, with normalization to GAPDH. RNA was isolated using an RNeasy Mini Kit (Qiagen) as per the manufacturer's instructions. On column DNase (Qiagen) was used to remove any contaminating DNA. Next, cDNA was formed using iScript cDNA Synthesis Kit (Bio‐Rad) and 100 ng RNA. qRT–PCR was performed with SsoAdvanced Universal SYBR Green Kit (Bio‐Rad). The following primers were used: IL‐8 Forward: […]; IL‐8 Reverse: […]; IL‐6 Forward: […]; IL‐6 Reverse: […]; GAPDH Forward: […]; GAPDH Reverse: […]. For immunofluorescent staining of NF‐ĸB translocation to the cell nucleus, HIOs and Caco‐2 cell monolayers were fixed in 4% formaldehyde (in 1 × PBS) overnight at 4°C. The formaldehyde was removed by washing with 1 × PBS, and an antigen retrieval step was performed by incubating in 10 mM sodium citrate buffer in a vegetable steamer for 20 min. The samples were then blocked with normal donkey serum (10% in PBS with 0.3% Triton X‐100) for 1 h. Samples were incubated overnight with primary antibodies: rabbit anti‐NF‐κB p65 (D14E12 # 8242, 1:400 dilution, Cell Signaling Technology, Danvers MA), then immersed in Alexa Fluor® 555 donkey anti‐rabbit secondary antibody (A‐31572, Life Technologies) at a 1:500 dilution. Nuclei were stained with Hoechst 33342 (Life Technologies). The samples were then imaged using a Zeiss LSM880 Confocal/Multiphoton Upright Microscope, with 3‐D image rendering using Volocity. For controls, normal rabbit IgG (#2729S, Life Technologies) was used.

[2] = tested on: PXR occupancy of CYP3A4 and MDR1 promoter; experiment: Chromatin immunoprecipitation (ChIP) in PXR-transfected LS174T cells; settings: 10 μM
Description: LS174T cells were transfected with pSG5‐PXR (2 μg/plate/1 × 10^7 cells). […] Briefly, cells were chemically cross‐linked with formaldehyde in culture media for 15 min at room temperature. […] Cells were rinsed twice with cold PBS (phosphate‐buffered saline) (pH 7.5) and scraped in PBS supplemented with PIC (protease inhibitor cocktail).
Cell pellets were collected and immediately resuspended in immunoprecipitation (IP) buffer (150 mM NaCl (sodium chloride), 50 mM Tris–HCl at pH 7.5, 5 mM EDTA (ethylenediaminetetraacetic acid), 0.5% NP‐40, 1% Triton X‐100). The nuclei were centrifuged at 12,000 × g for 1 min and resuspended in fresh IP buffer. Chromatin was sheared by sonication to an average size of 0.2‐0.9 kb. Lysates were cleared by centrifugation at 12,000 × g for 10 min. […] 10% (wt/vol) Chelex 100 was added to the beads followed by boiling of the suspension and centrifugation at 12,000 × g for 1 min to obtain chromatin.
Purified chromatin DNA was used to perform RT–qPCR. […] Data were analyzed using SDS 2.2.1 program (ABI Biotechnology).

[3] = tested on: CYP1A1, CYP3A4, MDR1 mRNA in HepaRG cells
Description: Caco‐2 cells were purchased from ATCC, and authenticity was validated by multiplexed STR DNA (short tandem repeat deoxyribonucleic acid) profiling performed by Genetica. […] Cells were maintained at 37°C and 5% CO2 in a humidified incubator. […] Three HepaRG™‐derived cell lines, including 5F Clone control cells, and cells with targeted functional PXR and AhR gene knockouts, PXR‐KO and AhR‐KO, respectively, were purchased from Sigma (Czech Republic). Cells were handled according to the manufacturer's protocol. Human hepatocytes were purchased from Biopredic International (France) and Triangle Research Labs, LLC, Lonza (USA). Cultures were maintained in serum‐free medium at 37°C and 5% CO2 in a humidified incubator.
The measurements were performed in triplicate.

[4] = compound 25µm, no cytokines, 2 hr
[5] = cytokines + compound 10µm, 2 hr

SMILES | cytokine-induced IL-8 mRNA ([1]; 25 μM) | IL8 mRNA ([1]; compound 10µm, no cytokines, 2 hr) | IL8 mRNA ([1]; compound 10µm, no cytokines, 12 hr) | IL8 mRNA [1, 4] | IL8 mRNA [1, 5] | IL8 mRNA ([1]; cytokines + compound 10µm, 12 hr) | PXR occupancy of proximal CYP3A4 and MDR1 promoter (semi-quantitative ChIP) [2] | CYP1A1 mRNA induction [3] | MDR-1 mRNA fold to C ([3]; HepaRG AHR-KO, normalised to GAPDH, fold vs UT) [fold] | CYP1A1 (1A1) mRNA, fold to C ([3]; human, 24 h) [fold] | CYP3A4 (3A4) mRNA, fold to C ([3]; human, 24 h) [fold] | CYP3A4 mRNA induction ([3]; human, 24 h) | MDR1 mRNA fold to C ([3]; human, 24 h) [fold] | MDR-1 mRNA, fold to C ([3]; human, 24 h) [fold] | IL8 mRNA ([1]; cytokines + compound 25µm, 2 hr) | IL8 mRNA ([1]; cytokines + compound 25µm, 12 hr) | MDR1 Fold Expression (2-ΔΔCt) ([2]; relative to DMSO = 1, each column a repeat experiment (Fig 1d)) | CYP3A4 mRNA induction [3] | MDR-1 mRNA fold to C ([3]; human, 24 h) [fold]
C#CCC(O)(c1ccncc1)c1cc2ccccc2n1S(=O)(=O)c1ccccc1 (centres unmarked) [FKK6] | significantly reduced | 2.554 and 1.974 and 1.5894 | 7.6 and 8.533 and 8.223 | 55.8723 and 30.5592 and 31.4544 | 40.0864 and 49.4401 and 49.4954 | 83.1628 and 71.3481 and 97.9287 | augmented PXR occupancy | did not induce | 1.31 | 8.33 | 2.91 | only in HepaRG™ control 5F clone | 1.04 | 0.98 |  |  |  |  | 
O=C(c1ccncc1)c1cc2ccccc2n1S(=O)(=O)c1ccccc1 [FKK5, (1-(phenylsulfonyl)-1H-indol-2-yl)(pyridin-4-yl)methanone] |  |  |  | 11.5603 and 13.1808 and 10.1297 | 168.69 and 99.441 and 183.41 |  |  | did not induce |  | 0.81 | 1.92 |  | 1.03 | 0.96 | 36.3596 and 45.4346 and 54.4045 | 434.784 and 305.562 and 246.223 | 3.894 and 3.803 and 2.576 and 4.071 | HepaRG™ AhR‐KO cells | 1.25
